Data from patent publication US4169950A, “Amino-hydroxy-alkyl sulfonic acid zwitterions” (priority 1977, dated 1979).

Experiments:
[1] = pKa (pH of midpoint of buffering range) of the product at 20° C.
From the text: (§2) In this application, pKa is used to represent the pH of the midpoint of the buffering range of the particular composition.

BALB/C 3T3 = assay: Effect of buffers on growth of 3T3 cells; type: cell-based, mouse; settings: for Minimum Cell Population: Control at 70 hrs, HEPES at 50 hrs, Ex 3 at 22 hrs
From the text: (§1) The control was not so modified. […] The medium was changed every other day.

SV-NIL cells = assay: Effect of buffers on growth of SV-NIL cells; type: cell-based, hamster; settings: for Minimum Cell Population: Control at 16 hrs, HEPES at 24 hrs, Ex 3 at 26 hrs
From the text: as §1

NIL B cells = assay: Effect of buffers on growth of NIL B cells; type: cell-based, hamster; settings: for Minimum Cell Population: Control at 16 hrs, HEPES at 24 hrs, Ex 3 at 24 hrs
From the text: as §1

[2] = test system: NIL B, SV-NIL and BALB/C 3T3 cells; assay: Effectiveness as cell and tissue culture buffers, overall comparison on the cell lines tested; settings: for effectiveness as buffer in promotion of cell growth, compared with HEPES / effectiveness as buffer in promotion of cell growth, compared with NaHCO3:CO2 system (control): selected media, cells tested
Protocol: The cell lines used in the tests were NIL B, a hamster fibroblast line; SV-NIL, an SV40-virus transformed line derived from NIL B; and BALB/C 3T3, a mouse embryo tissue. The cells were seeded into T-flasks (screw-capped polystyrene flasks) with a 25 cm^2 area. On the control flask (CO2 atmosphere), the cap was kept loose to allow gas circulation while the caps on the experimental culture flasks were screwed on tightly. The medium used in these tests was Eagle's MEM 4X (see pages 108-112 of Paul, Cell and Tissue Culture, 5th Edition, 1975), in an Earle's salt solution (page 95 of same text) modified to contain 2.2 g/l of bicarbonate for the experimental buffers. The control was not so modified. The control flask was incubated at 37° C. in an atmosphere of 5% CO2 in air whereas the other flasks were incubated at 37° C. in an air atmosphere. The medium was changed every other day.
At appointed times, triplicate flasks were harvested using trypsin, and the approximate cell population was determined using a Coulter electronic particle counter.

[3] = Solubility of double zwitterion on acidification; type: physicochemical; settings: aqueous reaction solution acidified to pH 1.5 with HCl

From the text for physchem: as §2

pKa [1] | SMILES | Time of minimum cell population (BALB/C 3T3) | Number of Cells per cm^2 (BALB/C 3T3; 0 hrs) | Number of Cells per cm^2 (BALB/C 3T3; 12 hrs) | Number of Cells per cm^2 (BALB/C 3T3; 24 hrs) | Number of Cells per cm^2 (BALB/C 3T3; 36 hrs) | Number of Cells per cm^2 (BALB/C 3T3; 48 hrs) | Number of Cells per cm^2 (BALB/C 3T3; 60 hrs) | Number of Cells per cm^2 (BALB/C 3T3; 72 hrs) | Number of Cells per cm^2 (BALB/C 3T3; 84 hrs) | Number of Cells per cm^2 (BALB/C 3T3; 88 hrs) | Minimum Cell Population (BALB/C 3T3) | Time of minimum cell population (SV-NIL cells) | Number of Cells per cm^2 (SV-NIL cells; 0 hrs) | Number of Cells per cm^2 (SV-NIL cells; 12 hrs) | Number of Cells per cm^2 (SV-NIL cells; 24 hrs) | Number of Cells per cm^2 (SV-NIL cells; 36 hrs) | Number of Cells per cm^2 (SV-NIL cells; 48 hrs) | Number of Cells per cm^2 (SV-NIL cells; 60 hrs) | Number of Cells per cm^2 (SV-NIL cells; 72 hrs) | further results
7.6 | O=S(=O)(O)CC(O)CN(CCO)CCO (stereo not drawn) [Example 1, 3-[N-(bis-hydroxyethyl)-amino]-2-hydroxypropyl sulfonic acid] | – | – | – | – | – | – | – | – | – | – | – | – | – | – | – | – | – | – | – | –
7.85 | O=S(=O)(O)CC(O)CN1CCN(CC(O)CS(=O)(=O)O)CC1 (stereo not drawn) [Example 4, Piperazine-N,N'-2-hydroxypropyl sulfonic acid (dihydrate)] | – | – | – | – | – | – | – | – | – | – | – | – | – | – | – | – | – | – | – | solubility [3]: very insoluble

The remaining lines, values behind:

SMILES | pKa [1] | Time of minimum cell population (BALB/C 3T3) | Number of Cells per cm^2 (BALB/C 3T3; 0 hrs) | Number of Cells per cm^2 (BALB/C 3T3; 12 hrs) | Number of Cells per cm^2 (BALB/C 3T3; 24 hrs) | Number of Cells per cm^2 (BALB/C 3T3; 36 hrs) | Number of Cells per cm^2 (BALB/C 3T3; 48 hrs) | Number of Cells per cm^2 (BALB/C 3T3; 60 hrs) | Number of Cells per cm^2 (BALB/C 3T3; 72 hrs) | Number of Cells per cm^2 (BALB/C 3T3; 84 hrs) | Number of Cells per cm^2 (BALB/C 3T3; 88 hrs) | Minimum Cell Population (BALB/C 3T3) | Time of minimum cell population (SV-NIL cells) | Number of Cells per cm^2 (SV-NIL cells; 0 hrs) | Number of Cells per cm^2 (SV-NIL cells; 12 hrs) | Number of Cells per cm^2 (SV-NIL cells; 24 hrs) | Number of Cells per cm^2 (SV-NIL cells; 36 hrs) | Number of Cells per cm^2 (SV-NIL cells; 48 hrs) | Number of Cells per cm^2 (SV-NIL cells; 60 hrs) | Number of Cells per cm^2 (SV-NIL cells; 72 hrs) | further results
O=S(=O)(O)CC(O)CNC(CO)(CO)CO (stereo not drawn) [Example 2, 3-[N-(tris-hydroxymethyl)methylamino]-2-hydroxypropane sulfonic acid] | – | – | – | – | – | – | – | – | – | – | – | – | – | – | – | – | – | – | – | – | pKa (physchem): 7.7
O=S(=O)(O)CC(O)CN1CCN(CCO)CC1 (stereo not drawn) [Example 3, N-hydroxyethyl piperazine-N'-2 hydroxypropyl sulfonic acid] | – | 22 h | 1000 cells per cm^2 | 520 cells per cm^2 | 280 cells per cm^2 | 310 cells per cm^2 | 330 cells per cm^2 | 360 cells per cm^2 | 450 cells per cm^2 | 805 cells per cm^2 | 1015 cells per cm^2 | about 280 cells per cm^2 | 26 h | 1000 cells per cm^2 | 470 cells per cm^2 | 220 cells per cm^2 | 290 cells per cm^2 | 440 cells per cm^2 | 680 cells per cm^2 | 1000 cells per cm^2 | Number of Cells per cm^2 (SV-NIL cells; 84 hrs): 1120 cells per cm^2; Number of Cells per cm^2 (SV-NIL cells; 90 hrs): 1200 cells per cm^2; Minimum Cell Population (SV-NIL cells): about 200 cells per cm^2; Time of minimum cell population (NIL B cells): 24 h; Number of Cells per cm^2 (NIL B cells; 0 hrs): 1000 cells per cm^2; Number of Cells per cm^2 (NIL B cells; 90-92 hrs): 9400 cells per cm^2; Number of Cells per cm^2 (NIL B cells; 12 hrs): 740 cells per cm^2; Number of Cells per cm^2 (NIL B cells; 24 hrs): 550 cells per cm^2; Number of Cells per cm^2 (NIL B cells; 36 hrs): 900 cells per cm^2; Number of Cells per cm^2 (NIL B cells; 48 hrs): 1100 cells per cm^2; Number of Cells per cm^2 (NIL B cells; 60 hrs): 2600 cells per cm^2; Number of Cells per cm^2 (NIL B cells; 72 hrs): 4300 cells per cm^2; Number of Cells per cm^2 (NIL B cells; 84 hrs): 6600 cells per cm^2; Minimum Cell Population (NIL B cells): about 550 cells per cm^2; effectiveness as buffer in promotion of cell growth, compared with HEPES [2]: as good as, if not better than, the control and the known buffer HEPES; effectiveness as buffer in promotion of cell growth, compared with NaHCO3:CO2 system (control) [2]: as good as, if not better than, the control; cell growth utilizing the product as a buffer ([2]; three cell types, average values): general improvement in cell growth
O=S(=O)(O)CC(O)CN1CCOCC1 (stereo not drawn) [Example 6, 3-(N-morpholino)-2-hydroxypropyl sulfonic acid] | – | – | – | – | – | – | – | – | – | – | – | – | – | – | – | – | – | – | – | – | effectiveness as buffer in promotion of cell growth, compared with HEPES [2]: about as good as HEPES; effectiveness as buffer in promotion of cell growth, compared with NaHCO3:CO2 system (control) [2]: not as good as the NaHCO3 :CO2 system
O=S(=O)(O)CCN1CCN(CCO)CC1 [HEPES, 4-(2-hydroxyethyl)-1-piperazine-ethanesulfonic acids, reference compound] | – | 50 h | 1000 cells per cm^2 | 640 cells per cm^2 | 400 cells per cm^2 | 300 cells per cm^2 | 230 cells per cm^2 | 280 cells per cm^2 | 380 cells per cm^2 | 760 cells per cm^2 | 1010 cells per cm^2 | about 220 cells per cm^2 | 24 h | 1000 cells per cm^2 | 440 cells per cm^2 | 200 cells per cm^2 | 230 cells per cm^2 | 260 cells per cm^2 | 380 cells per cm^2 | 580 cells per cm^2 | Number of Cells per cm^2 (SV-NIL cells; 84 hrs): 940 cells per cm^2; Number of Cells per cm^2 (SV-NIL cells; 90 hrs): 1040 cells per cm^2; Minimum Cell Population (SV-NIL cells): about 200 cells per cm^2; Time of minimum cell population (NIL B cells): 24 h; Number of Cells per cm^2 (NIL B cells; 0 hrs): 1000 cells per cm^2; Number of Cells per cm^2 (NIL B cells; 90-92 hrs): 6700 cells per cm^2; Number of Cells per cm^2 (NIL B cells; 12 hrs): 680 cells per cm^2; Number of Cells per cm^2 (NIL B cells; 24 hrs): 460 cells per cm^2; Number of Cells per cm^2 (NIL B cells; 36 hrs): 700 cells per cm^2; Number of Cells per cm^2 (NIL B cells; 48 hrs): 1010 cells per cm^2; Number of Cells per cm^2 (NIL B cells; 60 hrs): 1160 cells per cm^2; Number of Cells per cm^2 (NIL B cells; 72 hrs): 3000 cells per cm^2; Number of Cells per cm^2 (NIL B cells; 84 hrs): 4800 cells per cm^2; Minimum Cell Population (NIL B cells): about 460 cells per cm^2
